For this assay, the system named is S. aureus (NCTC). Type of assay: cell-based, Staphylococcus aureus. The following applies: 6 h. The procedure: The evaluation of the minimum bactericidal concentration (MBC) was carried out as described in Bilikova et al, (2015, Peptides 68:190-196) and the evaluation of the effective concentration to reduce 50% of the bacterial population (EC50) of the two peptides was carried out with the micro-dilutions of the broth as described in Wang H X and Ng T B (2003, Peptides 24:969-972). Standard deviations for triple incubations of each plate and EC50 evaluation were determined using GraphPad Prism version 6.00 (Graph-Pad Software, La Jolla Calif. USA) Staphylococcus aureus A control stock suspension was prepared in which 10^3 CFU of […] (6571 strain) were inoculated in 10 ml of BPW. […] Also in this case, the dilution series included control plates inoculated with DMSO without the peptide and control plates with bacteria only. 50 μl of each bacterial suspension were poured onto petri dishes with blood agar or rabbit plasma fibrinogen agar and incubated for 20 hours at 37° C. In all the investigated experimental conditions, the plate counting method was used to estimate the bactericidal activity of the peptides. Specifically, the number of colonies grown on plates with agar seeded with bacterial suspensions in the absence or in the presence of individual dilutions of peptides was counted and compared. […]

pEC50: −log10 of the molar value. Ends that are not written are not given here.

In turn, “VRLIVKVRIWRR-NH2 [Bac-amp1, VRLIVKVRIWRR-NH2]” showed a pEC50 of 5.78.
